{"source": "patent US20240108641A1", "about": "“COMPOSITIONS FOR ORAL ADMINISTRATION OF ZOLEDRONIC ACID OR RELATED COMPOUNDS FOR TREATING DISEASE” (ANTECIP BIOVENTURES II LLC, priority 2012, published 2024)", "key": {"[1]": {"system": "health-related quality of life (RAND-36)", "assay": "randomized placebo-controlled trial in chronic low back pain with Modic changes, RAND-36 quality of life", "assay_type": "in vivo, human", "conditions": "for RAND-36 Mental component, Unadjusted analyses Difference (95% CI) / RAND-36 Physical component, Unadjusted analyses Difference (95% CI) / Total RAND-36, Unadjusted analyses Difference (95% CI) / RAND-36 Mental component, Adjusted analyses Difference (95% CI) / RAND-36 Physical component, Adjusted analyses Difference (95% CI) / Total RAND-36, Adjusted analyses Difference (95% CI): ZA versus placebo; for RAND-36 Mental component, Adjusted analyses Difference (95% CI) / RAND-36 Physical component, Adjusted analyses Difference (95% CI) / Total RAND-36, Adjusted analyses Difference (95% CI): adjusted for baseline; for RAND-36 Mental component, Mean (SD) change / RAND-36 Mental component, Mean (SD) original values / RAND-36 Physical component, Mean (SD) change / RAND-36 Physical component, Mean (SD) original values / Total RAND-36, Mean (SD) change / Total RAND-36, Mean (SD) original values: single 5 mg IV infusion", "experimental": "A study was performed to evaluate the efficacy of a single intravenous infusion of 5 mg ZA in comparison with intravenous placebo infusion among patients with chronic low back pain (LBP) and Modic changes on MRI. This study was a double-blinded, randomized, placebo-controlled clinical trial in patients with low back pain (LBP). Patients were included in the study if they had low back symptoms for at least three months, an LBP of at least six (6) on a 10-cm Visual Analog Scale (VAS) or an Oswestry Disability Index (ODI) of at least 30%, and an M1, mixed M1/2 or M2 type change on MRI performed within six months at most prior to enrolment.\nAfter confirmation of eligibility patients were randomized to receive a single intravenous infusion of 5 mg zoledronic acid (n=20) or 100 ml saline as placebo (n=20) over a 15-minute period. Information on use of the concomitant medication and hospital admissions were recorded. Blood samples were taken for the assessment of safety, inflammatory mediators and markers of bone turnover at baseline, one month and one year.\nClinical assessments were performed 14 days before enrolment (screening visit), and follow-up visits at one month and one year after the infusion. The primary outcome was the change in the intensity of LBP on VAS. Secondary outcomes included leg pain intensity, ODI, health-related quality of life assessed with RAND-36, patient-reported sick leaves and lumbar flexibility. These outcome measures were assessed at baseline and at each follow-up. Lumbar flexibility was evaluated using the fingers-to-floor and trunk side bending measures (in cm). The percentage of patients undergoing a 20% relative improvement, the proportion of patients reaching a VAS score of 40 or less in the primary outcome, and patient acceptable symptom state (PASS) were also assessed. Pain medication use was inquired about during the follow-up visits."}, "[2]": {"system": "knee bone marrow lesions (BML)", "assay": "clinical study in knee osteoarthritis with bone marrow lesions, BML size on MRI", "assay_type": "in vivo, human", "conditions": "5 mg intravenous; for average BML area decreased as compared to placebo: 6 months; for Change in BML Size / Change in BML Size, Difference from Placebo: baseline to 6 months", "description": "Some embodiments related to joint pain, bone marrow lesions, and osteoarthritis were conceived as a result of analyzing data from a clinical study. Some of the results of this study were reported by Laslett et al. in Ann Rheum Dis 2012; 71:1322-1328. Some of the description and data reported below was not published prior to filing the present application. Fifty-two (52) patients with clinical knee osteoarthritis and knee bone marrow lesions (BML) were randomized to receive either intravenous zoledronic acid (5 mg) or placebo in a double blind fashion. All patients had to have at least one bone marrow lesion (BML) in the affected knee on magnetic resonance imaging (MRI). All patients had x-ray of the knee for determination of joint space narrowing (JSN), which was graded according to the Osteoarthritis Research Society International (OARSI) atlas. Patients had either no joint space narrowing (OARSI Grade 0), or greater degrees of joint space narrowing (OARSI Grade 1 and Grade 2). Twenty six patients were treated with zoledronic acid (8, 6, and 12 with OARSI Grades 0, 1, and 2, respectively). Twenty six patients received placebo (8, 8, and 10 with OARSI Grades 0, 1 and 2, respectively).\nBMLs were evaluated using proton density-weighted fat saturation MR images. BMLs were scored using Osiris software (University of Geneva, Geneva, Switzerland). The maximum size was measured in mm^2 using software cursors applied to the greatest area of each lesion. The lesion with the highest score was used if more than one was present at the same site. Each patient was given a BML score (mm^2) at each of the four sites (medial tibial, medial femoral, lateral tibial, and lateral femoral sites) and these were summed to create a total BML score (mm^2). The change in the total area of BMLs from baseline to 6 months was calculated."}, "[3]": {"system": "complex regional pain syndrome (CRPS)", "assay": "rat tibia fracture model of CRPS, dosing starting four weeks after fracture", "assay_type": "in vivo", "experimental": "A study was performed to evaluate the efficacy of bisphosphonates such as oral zoledronic acid in inhibiting immune responses and pain behavior in a rat fracture model of CRPS.\nThe effect of orally administered zoledronic acid was examined in the rat tibia fracture model of complex regional pain syndrome (CRPS). CRPS was induced in the rats by fracturing the right distal tibias of the animals and casting the fractured hindpaws for 4 weeks, as described in Guo T Z et al. (Pain. 2004; 108: 95-107).\nStarting four weeks after fracture and casting, animals were orally administered either vehicle (control) or zoledronic acid, a dose of 21 mg/kg on the first day and 3 mg/kg/day daily thereafter, or distilled water for 3 weeks (weeks 4-7 post-fracture). Drug was dissolved in distilled water and administered by gavage. Animals were fasted for 4 hours before and 2 hours after dosing. At the end of the 21-day period, casts were removed, and on the following day, the rats were tested for hindpaw pain, edema, and warmth."}, "in vivo": {"assay": "in vivo", "conditions": "beagle, dog, po, 150 mg", "experimental": "Tablets were manufactured containing either pure zoledronic acid or the disodium salt of zoledronic acid (disodium zoledronate tetrahydrate). Both types of tablets contained 50 mg of zoledronic acid equivalent per tablet. Identical excipients were used in both types of tablets, with amounts adjusted to account for the difference in molecular weights between the acid and the disodium salt.\nBeagle dogs were orally administered tablets containing 150 mg zoledronic acid equivalent either in the form of disodium zoledronate (Group 1) or pure zoledronic acid (Group 2). Each animal was given three 50 mg equivalent tablets (150 mg total), which were administered together. The animal's oral cavity was wetted with water before placing the tablets on the back of the animal's tongue. Animals were fasted before and after dosing. Animals were 6 to 9 months of age and weighed 6 to 10 kg on the day of dosing. There were three dogs per group.\nSerial blood samples were collected from each animal by venipuncture of the jugular vein at various points after dosing for measurement of plasma concentrations of zoledronic acid. Blood samples were collected into chilled tubes containing K2EDTA as the anticoagulant. Samples were then centrifuged at approximately 3000 rpm at +4° C. for 10 minutes for plasma derivation. Plasma concentrations of zoledronic acid were measured using an LC/MS/MS method."}, "[4]": {"conditions": "oral 21 mg/kg first day then 3 mg/kg/day, weeks 4-7 post-fracture"}}, "data": [{"smiles": "O=P(O)(O)C(O)(Cn1ccnc1)P(=O)(O)O", "note": "[zoledronic acid]", "values": [{"measurement": "RAND-36 Mental component, Unadjusted analyses Difference (95% CI)", "setting": "[1]; 1 mo.", "value": "2.0 (−2 to 6)"}, {"measurement": "RAND-36 Physical component, Unadjusted analyses Difference (95% CI)", "setting": "[1]; 1 mo.", "value": "0.3 (−4 to 5)"}, {"measurement": "Total RAND-36, Unadjusted analyses Difference (95% CI)", "setting": "[1]; 1 mo.", "value": "1.2 (−3 to 5)"}, {"measurement": "RAND-36 Mental component, Adjusted analyses Difference (95% CI)", "setting": "[1]; 1 mo.", "value": "1.6 (−2 to 5)"}, {"measurement": "RAND-36 Physical component, Adjusted analyses Difference (95% CI)", "setting": "[1]; 1 mo.", "value": "1.3 (−3 to 6)"}, {"measurement": "Total RAND-36, Adjusted analyses Difference (95% CI)", "setting": "[1]; 1 mo.", "value": "1.3 (−3 to 5)"}, {"measurement": "RAND-36 Mental component, Mean (SD) change", "setting": "[1]; 1 mo.", "value": "1.0 (6.1)"}, {"measurement": "RAND-36 Mental component, Mean (SD) original values", "setting": "[1]; 1 mo.", "value": "50 (9)"}, {"measurement": "RAND-36 Physical component, Mean (SD) change", "setting": "[1]; 1 mo.", "value": "0.1 (8.6)"}, {"measurement": "RAND-36 Physical component, Mean (SD) original values", "setting": "[1]; 1 mo.", "value": "52 (9)"}, {"measurement": "Total RAND-36, Mean (SD) change", "setting": "[1]; 1 mo.", "value": "0.6 (6.4)"}, {"measurement": "Total RAND-36, Mean (SD) original values", "setting": "[1]; 1 mo.", "value": "51 (8)"}, {"measurement": "RAND-36 Mental component, Unadjusted analyses Difference (95% CI)", "setting": "[1]; 12 mos.", "value": "3.5 (−2 to 9)"}, {"measurement": "RAND-36 Physical component, Unadjusted analyses Difference (95% CI)", "setting": "[1]; 12 mos.", "value": "0.7 (−5 to 6)"}, {"measurement": "Total RAND-36, Unadjusted analyses Difference (95% CI)", "setting": "[1]; 12 mos.", "value": "2.1 (−3 to 7)"}, {"measurement": "RAND-36 Mental component, Adjusted analyses Difference (95% CI)", "setting": "[1]; 12 mos.", "value": "2.7 (−2 to 7)"}, {"measurement": "RAND-36 Physical component, Adjusted analyses Difference (95% CI)", "setting": "[1]; 12 mos.", "value": "2.1 (−3 to 7)"}, {"measurement": "Total RAND-36, Adjusted analyses Difference (95% CI)", "setting": "[1]; 12 mos.", "value": "2.2 (−2 to 7)"}, {"measurement": "RAND-36 Mental component, Mean (SD) change", "setting": "[1]; 12 mos.", "value": "1.8 (9.0)"}, {"measurement": "RAND-36 Mental component, Mean (SD) original values", "setting": "[1]; 12 mos.", "value": "51 (9)"}, {"measurement": "RAND-36 Physical component, Mean (SD) change", "setting": "[1]; 12 mos.", "value": "0.3 (10)"}, {"measurement": "RAND-36 Physical component, Mean (SD) original values", "setting": "[1]; 12 mos.", "value": "52 (8)"}, {"measurement": "Total RAND-36, Mean (SD) change", "setting": "[1]; 12 mos.", "value": "1.0 (8.7)"}, {"measurement": "Total RAND-36, Mean (SD) original values", "setting": "[1]; 12 mos.", "value": "51 (8)"}, {"measurement": "average BML area decreased as compared to placebo", "setting": "[2]; OARSI Grade 0", "value": "approximately 190 mm^2"}, {"measurement": "average BML area decreased as compared to placebo", "setting": "[2]; OARSI Grades 1-2", "value": "approximately 33 mm^2"}, {"measurement": "Change in BML Size", "setting": "[2]; OARSI Grade 0", "value": "−244", "unit": "mm^2"}, {"measurement": "Change in BML Size, Difference from Placebo", "setting": "[2]; OARSI Grade 0", "value": "−190", "unit": "mm^2"}, {"measurement": "Change in BML Size", "setting": "[2]; OARSI Grades 1-2", "value": "−117", "unit": "mm^2"}, {"measurement": "Change in BML Size, Difference from Placebo", "setting": "[2]; OARSI Grades 1-2", "value": "−33", "unit": "mm^2"}, {"measurement": "hindlimb weight bearing", "setting": "[3]; [4]", "value": "over 90 % of normal"}, {"measurement": "overall effect compared to vehicle treated animals", "setting": "[3]; [4]", "value": "reversed pain and restored weight bearing"}, {"measurement": "von Frey pain thresholds for the right (fracture) hindpaw, change as compared to baseline", "setting": "[3]; [4]", "value": "over 100%"}, {"measurement": "pain relief, dosing four weeks after fracture versus dosing at the time of injury", "setting": "[3]; oral, FIG. 18", "value": "significantly greater improvement of pain relief"}, {"measurement": "AUC(0-inf)", "setting": "in vivo", "value": 2220, "unit": "ng·h/mL"}]}]}
